These results are taken from ChEMBL document CHEMBL4665644, “L-DOPA-quinone Mediated Recovery from GIRK Channel Firing Inhibition in Dopaminergic Neurons” (ACS Med Chem Lett, 2019).

The target in assay [1] is T1, G protein-activated inward rectifier potassium channel 2 (Mus musculus) (UniProt P48542).
T1 sequence (whole entry): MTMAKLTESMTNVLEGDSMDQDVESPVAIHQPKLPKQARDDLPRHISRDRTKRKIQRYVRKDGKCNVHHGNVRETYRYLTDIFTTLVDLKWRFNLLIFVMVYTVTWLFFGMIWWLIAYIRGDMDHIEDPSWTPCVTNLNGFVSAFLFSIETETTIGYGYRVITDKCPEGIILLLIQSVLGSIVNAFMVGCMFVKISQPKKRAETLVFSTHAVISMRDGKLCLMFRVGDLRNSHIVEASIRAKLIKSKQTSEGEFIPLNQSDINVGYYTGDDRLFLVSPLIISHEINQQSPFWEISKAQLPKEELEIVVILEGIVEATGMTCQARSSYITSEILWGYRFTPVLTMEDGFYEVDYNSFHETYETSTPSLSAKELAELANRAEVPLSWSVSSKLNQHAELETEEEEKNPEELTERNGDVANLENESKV
Nature of the assay: Stabilization of GIRK2 channel in C57BL6 mouse brain DAergic neurons assessed as recovery of D2 receptor stimulation-mediated firing inhibition in presence of 100 nM quinpirole under continuous perfusion followed by treated at 300 uM measured after 15 mins by multi-electrode array (reference value: 4.07 +-/ 3.6%). The assay is classed as tissue-based. As to conditions: […]. Details: scale not given: the % may be the effect or the level left.

For assay [2], the target named is T1, G protein-activated inward rectifier potassium channel 2 (Mus musculus). Nature of the assay: Stabilization of GIRK2 channel in C57BL6 mouse brain DAergic neurons assessed as recovery of GABAB receptor stimulation-mediated firing inhibition treated with 100 uM dopamine and 10 uM sulpiride D2 antagonist under continuous perfusion followed by 300 nM baclofen treated at 300 uM measured after 15 mins by multi-electrode array (reference value: 24.94 +-/ 14.46%). Type of assay: tissue-based. Set-up: scale not given: the % may be the effect or the level left.

Structures are written as SMILES.

In the case of `N[C@@H](CC1=CC(=O)C(=O)C=C1)C(=O)O`, the Activity in assay [1] stood at 81.8%; in assay [2], 73.6%.
